Experimental data reported in patent US9944639B2, “Quinolizinone derivatives as PI3K inhibitors” (Lupin Limited, priority 2014, dated 2018).

Biological target: T1, PI3Kδ (Homo sapiens, UniProt O00329)
T1 construct: endogenous in cells; host or cells: Raji cells
Assay: Cell Based Assay for PI3Kδ (AKT phosphorylation, AlphaScreen SureFire, anti-IgM stimulated Raji cells)
Conditions: compounds 1 h, anti-IgM (3 μg/mL) 30 min, phosphorylation of AKT, read-out: PI3Kδ inhibition IC50
Description: [formula] C) Cell Based Assay for PI3Kδ
Raji cells were maintained in RPMI-1640 (Sigma) supplemented with 10% fetal bovine serum (heat inactivated) (FBS, Sigma), 100 U penicillin/mL, and […] streptomycin and incubated at 37° C. and 5% CO2. Cells were centrifuged and resuspended in a complete medium. The required numbers of cells were transferred to a tissue culture flask containing medium without serum for 1 h at 37° C., 5% CO2. Following 1 h serum starvation, cells were centrifuged and resuspended in Hank's Balanced Salt Solution (HBSS, Sigma) and seeded in at a density of 1 million cells/well in 96-well clear bottom plates. The cells were treated with test compounds for 1 h at 37° C., 5% CO2. Cells were then stimulated with anti-IgM (3 μg/mL) for 30 min. After Stimulation, cells were lysed with 15 μL of 5× lysis buffer and the plate was shaken on an orbital plate shaker at approximately 300 rpm for 10 min. AlphaScreen® SureFire® Cell-based Assay (Perkin-Elmer, Waltham, Mass., USA) was performed to measure phosphorylation of AKT, in the cells according to the manufacturer's instructions. The luminescence was measured using an alpha technology-compatible plate reader BMG Labtech, Germany) at 520-620 nm. Percentage inhibition was calculated according to formula: […]
IC50 values were calculated by plotting % inhibition against the respective concentrations of test compounds using GraphPad Prism 5.

T1 sequence (O00329 whole entry): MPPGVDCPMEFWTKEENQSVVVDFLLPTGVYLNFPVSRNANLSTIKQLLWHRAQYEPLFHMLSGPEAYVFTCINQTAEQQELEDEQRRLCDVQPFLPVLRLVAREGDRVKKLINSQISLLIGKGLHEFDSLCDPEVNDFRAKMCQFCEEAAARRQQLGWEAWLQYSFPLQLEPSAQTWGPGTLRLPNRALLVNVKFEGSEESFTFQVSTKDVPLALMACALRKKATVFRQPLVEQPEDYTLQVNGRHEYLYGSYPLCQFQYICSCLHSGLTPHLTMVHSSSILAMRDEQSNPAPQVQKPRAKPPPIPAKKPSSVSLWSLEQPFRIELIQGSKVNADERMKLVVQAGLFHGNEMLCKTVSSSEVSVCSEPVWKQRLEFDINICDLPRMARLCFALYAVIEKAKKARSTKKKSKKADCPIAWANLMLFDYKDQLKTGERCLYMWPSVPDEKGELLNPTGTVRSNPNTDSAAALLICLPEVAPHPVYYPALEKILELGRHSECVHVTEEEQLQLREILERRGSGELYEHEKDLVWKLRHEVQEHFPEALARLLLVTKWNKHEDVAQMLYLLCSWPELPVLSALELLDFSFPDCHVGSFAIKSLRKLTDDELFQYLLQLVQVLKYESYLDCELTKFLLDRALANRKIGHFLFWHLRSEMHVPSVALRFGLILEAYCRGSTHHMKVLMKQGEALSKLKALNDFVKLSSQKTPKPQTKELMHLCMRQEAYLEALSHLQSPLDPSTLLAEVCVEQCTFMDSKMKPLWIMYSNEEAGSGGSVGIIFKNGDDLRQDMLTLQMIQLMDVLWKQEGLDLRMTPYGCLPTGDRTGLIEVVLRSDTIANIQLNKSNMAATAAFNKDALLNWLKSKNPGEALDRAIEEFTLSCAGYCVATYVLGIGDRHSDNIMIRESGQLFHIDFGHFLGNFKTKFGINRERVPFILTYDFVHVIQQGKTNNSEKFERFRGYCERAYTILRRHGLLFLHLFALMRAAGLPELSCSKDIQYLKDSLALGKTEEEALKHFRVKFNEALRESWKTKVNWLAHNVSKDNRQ
T1 sequence (P27986 whole entry partner): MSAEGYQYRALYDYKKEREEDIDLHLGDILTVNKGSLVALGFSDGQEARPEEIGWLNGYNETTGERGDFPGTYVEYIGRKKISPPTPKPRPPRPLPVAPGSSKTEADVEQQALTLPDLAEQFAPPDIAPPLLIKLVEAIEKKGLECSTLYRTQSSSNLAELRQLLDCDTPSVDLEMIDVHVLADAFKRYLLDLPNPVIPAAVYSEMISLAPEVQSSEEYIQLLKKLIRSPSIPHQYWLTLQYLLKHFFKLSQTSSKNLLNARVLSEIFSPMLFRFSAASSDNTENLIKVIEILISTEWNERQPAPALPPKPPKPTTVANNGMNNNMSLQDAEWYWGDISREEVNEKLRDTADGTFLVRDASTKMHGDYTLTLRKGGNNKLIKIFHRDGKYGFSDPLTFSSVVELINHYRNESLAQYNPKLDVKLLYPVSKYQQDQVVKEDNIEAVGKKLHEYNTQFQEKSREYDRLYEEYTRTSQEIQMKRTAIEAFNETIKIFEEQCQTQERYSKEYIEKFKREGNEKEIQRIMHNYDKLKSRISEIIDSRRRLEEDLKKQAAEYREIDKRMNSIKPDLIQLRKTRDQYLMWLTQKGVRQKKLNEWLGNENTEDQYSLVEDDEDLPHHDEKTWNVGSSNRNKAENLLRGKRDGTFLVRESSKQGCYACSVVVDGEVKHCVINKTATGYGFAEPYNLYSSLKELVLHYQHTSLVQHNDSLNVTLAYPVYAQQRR

| SMILES | IC50 |
| --- | --- |
| C[C@H](Nc1ncnc(N)c1C#N)c1cc2ccccn2c(=O)c1-c1ccccc1 (single isomer, unassigned) [Compound 4a, 4-Amino-6-((1-(4-oxo-3-phenyl-4H-quinolizin-2-yl)ethyl)amino)pyrimidine-5-carbonitrile] | 11 to 50 nM |
| C[C@H](Nc1ncnc2[nH]cnc12)c1cc2ccccn2c(=O)c1-c1cccc(F)c1 (single isomer, unassigned) [Compound 5a, 2-(1-((9H-purin-6-yl)amino)ethyl)-3-(3-fluorophenyl)-4H-quinolizin-4-one] | 51 to 250 nM |
| C[C@H](Nc1ncnc(N)c1C#N)c1cc2ccccn2c(=O)c1-c1cccc(F)c1 (single isomer, unassigned) [Compound 6a, 4-Amino-6-((1-(3-(3-fluorophenyl)-4-oxo-4H-quinolizin-2-yl)ethyl)amino)-pyrimidine-5-carbonitrile] | 0.1 to 10 nM |
| Cc1cccc2cc([C@H](C)Nc3nc(N)nc4[nH]cnc34)c(-c3ccccc3)c(=O)n12 (single isomer, unassigned) [Compound 8a, 2-(1-((2-Amino-9H-purin-6-yl)amino)ethyl)-6-methyl-3-phenyl-4H-quinolizin-4-one] | 0.1 to 10 nM |
| Cc1cccc2cc([C@H](C)Nc3nc(F)nc4[nH]cnc34)c(-c3ccccc3)c(=O)n12 (single isomer, unassigned) [Compound 9a, 2-(1-((2-Fluoro-9H-purin-6-yl)amino)ethyl)-6-methyl-3-phenyl-4H-quinolizin-4-one] | 0.1 to 10 nM |
| Cc1cccc2cc([C@H](C)Nc3ncnc(N)c3C#N)c(-c3cccc(F)c3)c(=O)n12 (single isomer, unassigned) [Compound 10a, 4-Amino-6-((1-(3-(3-fluorophenyl)-6-methyl-4-oxo-4H-quinolizin-2-yl)ethyl)amino)pyrimidine-5-carbonitrile] | 0.1 to 10 nM |
| Cc1cccc2cc([C@H](C)Nc3ncnc4[nH]cnc34)c(-c3cccc(F)c3)c(=O)n12 (single isomer, unassigned) [Compound 11a, 2-(1-((9H-purin-6-yl)amino)ethyl)-3-(3-fluorophenyl)-6-methyl-4H-quinolizin-4-one] | 0.1 to 10 nM |
| Cc1cccc2cc([C@H](C)Nc3nc(N)nc4[nH]cnc34)c(-c3cccc(F)c3)c(=O)n12 (single isomer, unassigned) [Compound 12a, 2-(1-((2-Amino-9H-purin-6-yl)amino)ethyl)-3-(3-fluorophenyl)-6-methyl-4H-quinolizin-4-one] | 0.1 to 10 nM |
| C[C@H](Nc1ncnc(N)c1C#N)c1cc2ccc(F)cn2c(=O)c1-c1ccccc1 (single isomer, unassigned) [Compound 14a] | 11 to 50 nM |
| C[C@H](Nc1nc(N)nc2[nH]cnc12)c1cc2ccc(F)cn2c(=O)c1-c1cccc(F)c1 (single isomer, unassigned) [Compound 15a, 2-(1-((2-Amino-9H-purin-6-yl)amino)ethyl)-7-fluoro-3-(3-fluorophenyl)-4H-quinolizin-4-one] | 11 to 50 nM |
| C[C@H](Nc1ncnc(N)c1C#N)c1cc2ccc(F)cn2c(=O)c1-c1cccc(F)c1 (single isomer, unassigned) [Compound 16a, 4-Amino-6-((1-(7-fluoro-3-(3-fluorophenyl)-4-oxo-4H-quinolizin-2-yl)ethyl)amino)pyrimidine-5-carbonitrile] | 0.1 to 10 nM |
| Cc1cccc2cc([C@H](C)Nc3ncnc(N)c3C#N)c(-c3cc(F)cc(F)c3)c(=O)n12 (single isomer, unassigned) [Compound 17a, 4-Amino-6-((1-(3-(3,5-difluorophenyl)-6-methyl-4-oxo-4H-quinolizin-2-yl)ethyl)amino)pyrimidine-5-carbonitrile] | 0.1 to 10 nM |
| Cc1cccc2cc([C@H](C)Nc3nc(N)nc4[nH]cnc34)c(-c3cc(F)cc(F)c3)c(=O)n12 (single isomer, unassigned) [Compound 18a, 2-(1-((2-amino-9H-purin-6-yl)amino)ethyl)-3-(3,5-difluorophenyl)-6-methyl-4H-quinolizin-4-one] | 0.1 to 10 nM |
| Cc1cccc2cc([C@H](C)Nc3ncnc(N)c3C#N)c(-c3ccc(F)c(F)c3)c(=O)n12 (single isomer, unassigned) [Compound 19a, 4-Amino-6-((1-(3-(3,4-difluorophenyl)-6-methyl-4-oxo-4H-quinolizin-2-yl)ethyl)amino)pyrimidine-5-carbonitrile] | 11 to 50 nM |
| C[C@H](Nc1nc(N)ncc1C#N)c1cc2ccc(F)cn2c(=O)c1-c1cccc(F)c1 (single isomer, unassigned) [Compound 20a, 2-Amino-4-((1-(7-fluoro-3-(3-fluorophenyl)-4-oxo-4H-quinolizin-2-yl)ethyl)amino)pyrimidine-5-carbonitrile] | 11 to 50 nM |
| Cc1nc(N)nc(N[C@@H](C)c2cc3ccc(F)cn3c(=O)c2-c2cccc(F)c2)c1C#N (single isomer, unassigned) [Compound 21a, 2-Amino-4-((1-(7-fluoro-3-(3-fluorophenyl)-4-oxo-4H-quinolizin-2-yl)ethyl)amino)-6-methylpyrimidine-5-carbonitrile] | 0.1 to 10 nM |
| Cc1c(F)ccc2cc([C@H](C)Nc3ncnc(N)c3C#N)c(-c3cccc(F)c3)c(=O)n12 (single isomer, unassigned) [Compound 23a, 4-Amino-6-((1-(7-fluoro-3-(3-fluorophenyl)-6-methyl-4-oxo-4H-quinolizin-2-yl)ethyl)amino)pyrimidine-5-carbonitrile] | 0.1 to 10 nM |
| Cc1c(F)ccc2cc([C@H](C)Nc3ncnc4[nH]cnc34)c(-c3ccccc3)c(=O)n12 (single isomer, unassigned) [Compound 24a, 2-(1-((9H-purin-6-yl)amino)ethyl)-7-fluoro-6-methyl-3-phenyl-4H-quinolizin-4-one] | 0.1 to 10 nM |
| CC[C@H](Nc1ncnc(N)c1C#N)c1cc2ccc(F)cn2c(=O)c1-c1ccccc1 (single isomer, unassigned) [Compound 41a, 4-Amino-6-((1-(7-fluoro-4-oxo-3-phenyl-4H-quinolizin-2-yl)propyl)amino)pyrimidine-5-carbonitrile] | 11 to 50 nM |
| CC[C@H](Nc1nc(N)nc(N)c1C#N)c1cc2ccc(F)cn2c(=O)c1-c1ccccc1 (single isomer, unassigned) [Compound 42a, 2,4-diamino-6-((1-(7-fluoro-4-oxo-3-phenyl-4H-quinolizin-2-yl)propyl)amino)pyrimidine-5-carbonitrile] | 0.1 to 10 nM |
| CC[C@H](Nc1ncnc(N)c1C#N)c1cc2ccc(F)cn2c(=O)c1-c1cccc(F)c1 (single isomer, unassigned) [Compound 44a, 4-Amino-6-((1-(7-fluoro-3-(3-fluorophenyl)-4-oxo-4H-quinolizin-2-yl)propyl)amino)pyrimidine-5-carbonitrile] | 11 to 50 nM |
| CC[C@H](Nc1nc(N)nc(N)c1C#N)c1cc2ccc(F)cn2c(=O)c1-c1cccc(F)c1 (single isomer, unassigned) [Compound 45a, 2,4-diamino-6-((1-(7-fluoro-3-(3-fluorophenyl)-4-oxo-4H-quinolizin-2-yl)propyl)amino)pyrimidine-5-carbonitrile] | 0.1 to 10 nM |
| CC[C@H](Nc1nc(N)nc2[nH]cnc12)c1cc2ccc(F)cn2c(=O)c1-c1cccc(F)c1 (single isomer, unassigned) [Compound 47b, 2-(1-((2-amino-9H-purin-6-yl)amino)propyl)-7-fluoro-3-(3-fluorophenyl)-4H-quinolizin-4-one] | 11 to 50 nM |
